In patent US9593146B2, “CD44v6-derived peptides for treating metastasizing cancer” (AMCURE GMBH, priority 2012, dated 2017):

How the values were obtained:
Met = details: N to A and E to A mutated pentapeptide; cited from earlier work
Met and ERK [1] = assay: HGF induced activation of Met and Erk in BSp73ASs6 cells (Western blot); format: cell-based, rat; details: BSp73ASs6 cells induced with HGF in the presence of the labeled peptide (FIG. 3A right)
Description: (§1) Serum-starved cells (24 hours) were induced with the growth factor HGF (10 ng/mL) at 37° C. for 5 minutes. Where indicated, the cells were treated with peptides (100 ng/ml) prior to induction at 37° C. for 10 minutes (100 ng/mL CD44v6 peptide or control peptide). Following the induction with HGF, cells were washed with ice-cold phosphate-buffered saline (PBS). To detect activated Met and Erk, cells were lysed in sodium dodecyl sulfate (SDS)-sample buffer containing 100 mM dithiothreitol (DTT), boiled and subjected to western blot analysis using antibodies against phospho-Met and ERK. The loading controls were performed on the same blot after stripping (62.5 mM Tris, pH 6.8, 2% SDS, 0.8% DTT) by probing with the Met respectively ERK antibody. Blots were stained using the enhanced chemiluminescence system (Thermo Fisher Scientific, Schwerte, Germany). Bands in western blot analysis were quantified with the program Image J (National Institutes of Health).
Rat pancreatic cancer cells BSp73ASs6 (also designated Ass6) were incubated for 10 min at 37° C. with either ctrl-peptides (SEQ ID No.: 15), non-pegylated v6-peptides (SEQ ID No.: 11) and increasing concentrations of the pegylated peptides, namely PEG-rat control peptide and PEG-rat CD44v6 peptide, before induction with HGF (10 ng/ml; 5 min at 37° C.).
Activation of ERK and Met was determined by standard SDS and Western Blotting techniques using a phospho-Met and phospho-Erk specific antibody (phospho-Met clone D16 cell signaling, phospho-Erk p42/44 cell signaling)
ASs6 cells, serum starved for 24 h, were induced with HGF (10 ng/ml) at 37° C. for 5 min. Where indicated, the cells were treated with PEGylated or non-PEGylated peptides before induction at 37° C. for 10 min (150 nM). Cells were washed with phosphate-buffered saline (PBS) and lysed in boiling sodium dodecyl sulfate (SDS)-sample buffer containing 100 mM dithiothreitol (DTT). Subsequently, lysates were subjected to Western blot analysis using antibodies against phosphorylated Mek and Erk (Cell signaling). The Mek and Erk loading control were performed on the same blot, stripped (62.5 mM Tris pH 6.8, 2% SDS, 0.8% DTT) and probed with the Mek and Erk antibodies. Blots were stained using the enhanced chemiluminescence system (Thermo Fisher Scientific).

BSp73ASs6 cells = assay: Staining of fixed BSp73ASs6 cells with DY681-labeled peptides; format: cell-based, rat; details: DY681-labeled peptide for one hour
Description: (§2) ASs6 or L3.6pl cells were seeded at 5,000 cells/well of a Lab-TekR Chamber Slide™ (Nunc, Napierville, Ill., USA). On the following day the cells were washed with cold PBS and fixed with 4% Formalin for 30 min at RT. Unspecific binding was blocked with 1% BSA in PBS for 1 hour at RT. The cells were incubated for 1 hour with the DY681-labeled peptides. After three washing steps with PBS the cover slips were mounted with Fluorescence Mounting Medium (Dako, Glostrup, Denmark) and the immunofluorescence was measured by a laser scanning confocal microscope Leica TCS2 SP2 (Exton, Pa., USA) and processed using Leica confocal software. A 20× objective was used for imaging.

L3.6pl tumors = assay: In vivo / ex vivo imaging (Pearl Imager) of mice with L3.6pl tumors; details: for fluorescence / accumulation in the orthotopic L3.6pl tumor in vivo: 20 μg i.v., 24 h after injection
Description: In vivo imaging of the mice with the L3.6pl tumors was performed using the Pearl™ Imager (LI-COR Biosciences, Bad Homburg, Germany). The system uses two lasers (685 and 785 nm) for excitation and a charge-coupled device detector for signal detection. The laser excitation enables a deep tissue penetration. With the near-infrared detection a high sensitivity due to the reduced tissue auto-fluorescence is achieved. In order to standardize the images we made use of the Pearl Cam Software. The animals were fed with chlorophyll-reduced food to reduce the fluorescence background one week before imaging (Regime 210, safe-diets, Augy, France). Prior to imaging the mice were anesthetized with 2.0% isoflurane. Animals were placed on the heated plate of the imager and continuous delivery of isoflurane was achieved through a nose cone in the imaging drawer. Images were captured at white light, 700 and 800 nm. Animals were imaged prior to i.v. peptide injection and 24 h after injection with either DY681-labeled human v6 peptide or DY681-labeled rat v6 peptide as control. Immediately after each imaging session animals were killed, tumor, liver and spleen isolated and scanned ex vivo at white light, 700 and 800 nm.

BSp73ASs6 tumors = details: rat
Description: In vivo imaging of the subcutaneously grown BSp73ASs6 tumors in BD10 or BDX rats was performed using the near infrared fluorescence (NIRF)-imaging system Optix MX2 (ART, Montreal, Canada) as described earlier (Napp et al., Int J Cancer (2010), 127:1958-1974). To avoid autofluorescence of fur, rats were shaved around the tumor prior to imaging. Subsequently, animals were anesthetized using 2% isoflurane and gently fixed on the devices' heated plate for the entire time of data acquisition. To reduce fluorescence background, rats were fed with chlorophyll-reduced food (Provimi Kliba AG, Kaiseraugst, Switzerland) for one week prior NIRF imaging. All in vivo analyses were preceded by native scans of animals without any injection of the fluorescent probe. […] The rat 11mer had the sequence [sequence] (SEQ ID No.: 12), the mouse 11mer had the sequence [sequence] (SEQ ID No.: 13) and the human 11mer had the sequence [sequence] (SEQ ID No.: 14). All peptides were labeled with the fluorescent dye DY681. Data were acquired at the indicated time after injection of the peptides. For ex vivo monitoring animals were sacrificed after 24 hrs after peptide injection and tumor and organs of interest were scanned ex vivo using Optix MX2.
DY681 fluorescence was measured using excitation at 670 nm in combination with a 700 nm long-pass emission filter. […] Data sets were analyzed with OptiView (ART).

Met and ERK [2] = assay: HGF induced activation of Met and ERK in L3.6pl cells (Western blot); format: cell-based, human; details: L3.6pl cells induced with HGF (FIG. 5A right)
Description: as §1

L3.6pl cells = assay: Staining of L3.6pl cells with DY681-labeled peptides; format: cell-based, human; details: DY681 labeled peptide
Description: as §2

Substance | inhibition of Met activation by DY681 labeled peptide (Met and ERK [1]) | binding to BSp73ASs6 cells in tissue culture (BSp73ASs6 cells) | fluorescence / accumulation in the orthotopic L3.6pl tumor in vivo (L3.6pl tumors) | other results
A-R-W-H-A (ARWHA) [pentapeptide with N and E mutated to A] | – | – | – | Met activation (Met): capable of abrogating Met activation
WFENEWQGKNP [rv6 pep Dy681] | inhibited Met activation | bound to BSp73ASs6 cells in tissue culture | No fluorescence was detected | fluorescence in excised tumors and lungs ex vivo (BSp73ASs6 tumors): could only be detected in tumors and in specific areas of the lungs
WFGNRWHEGYR [DY681 human v6 peptide, human v6 11mer labeled with DY681] | – | – | accumulated specifically in the tumor | inhibition of Met activation by DY681 labeled peptide (Met and ERK [2]): inhibited Met activation in L3.6pl cells; binding to L3.6pl cells in cell culture (L3.6pl cells): bound to these cells in cell culture; ex vivo binding to primary tumors, livers (L3.6pl tumors; organs excised 24 h after injection): binding not only to primary tumors but also to areas of the liver
WFQNGWQGKNP [mv6 pep Dy681, mouse v6 11mer labeled with DY681, control, reference compound] | not the mouse peptide inhibited Met activation | not the DY681-labeled mouse v6 peptide bound to BSp73ASs6 cells | – | –
